Our source for the EC50, IC50 and AC50 values is ChEMBL document CHEMBL1201862, “PubChem BioAssay data set” (2004).

The target of assay [1] is T1, RNA-binding protein pos-1 (Caenorhabditis elegans, UniProt G5EF15).
T1 sequence (G5EF15 whole entry): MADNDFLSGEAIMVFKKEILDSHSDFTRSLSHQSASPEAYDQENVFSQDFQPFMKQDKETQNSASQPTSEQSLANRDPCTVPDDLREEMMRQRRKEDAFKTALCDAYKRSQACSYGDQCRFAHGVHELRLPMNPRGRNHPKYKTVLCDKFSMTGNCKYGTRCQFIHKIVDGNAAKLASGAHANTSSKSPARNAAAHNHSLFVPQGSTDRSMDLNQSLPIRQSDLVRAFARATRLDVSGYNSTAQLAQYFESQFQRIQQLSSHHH
Nature of the assay: inhibitors of POS-1/mex-3 RNA binding, dose response, biochemical, fluorescence polarization (AID 1964).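 Further: purified POS-1 fused to maltose binding protein made in E. coli; potency of compounds blocking POS-1 binding to fluorescent RNA.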 A general note: Fluorescence polarisation rises when a labelled molecule tumbles more slowly, as on binding a larger partner.

Assay [2] addresses T2, Zinc finger protein mex-5 (Caenorhabditis elegans, UniProt Q9XUB2).
T2 sequence (Q9XUB2 whole entry): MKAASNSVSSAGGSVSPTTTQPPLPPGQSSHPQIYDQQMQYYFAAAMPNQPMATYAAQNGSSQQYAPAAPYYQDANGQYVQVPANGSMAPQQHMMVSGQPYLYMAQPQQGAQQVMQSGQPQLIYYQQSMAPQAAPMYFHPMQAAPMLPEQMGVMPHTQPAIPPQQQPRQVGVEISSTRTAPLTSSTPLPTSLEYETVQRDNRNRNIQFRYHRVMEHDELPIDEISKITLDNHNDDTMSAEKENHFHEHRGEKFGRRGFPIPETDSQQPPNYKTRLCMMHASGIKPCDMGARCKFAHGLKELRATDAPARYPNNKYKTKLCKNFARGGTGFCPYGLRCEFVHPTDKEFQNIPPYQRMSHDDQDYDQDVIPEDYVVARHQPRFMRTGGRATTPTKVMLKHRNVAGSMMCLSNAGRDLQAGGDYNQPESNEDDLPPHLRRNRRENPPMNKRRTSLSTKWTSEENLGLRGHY
As to the kind of experiment: MEX-5/TCR-2 RNA interaction inhibitors, dose response, biochemical, C. elegans, fluorescence polarization (AID 1960).

The target of assay [3] is T3, Heat shock factor protein 1 (Mus musculus, UniProt P38532).
T3 sequence (P38532 whole entry): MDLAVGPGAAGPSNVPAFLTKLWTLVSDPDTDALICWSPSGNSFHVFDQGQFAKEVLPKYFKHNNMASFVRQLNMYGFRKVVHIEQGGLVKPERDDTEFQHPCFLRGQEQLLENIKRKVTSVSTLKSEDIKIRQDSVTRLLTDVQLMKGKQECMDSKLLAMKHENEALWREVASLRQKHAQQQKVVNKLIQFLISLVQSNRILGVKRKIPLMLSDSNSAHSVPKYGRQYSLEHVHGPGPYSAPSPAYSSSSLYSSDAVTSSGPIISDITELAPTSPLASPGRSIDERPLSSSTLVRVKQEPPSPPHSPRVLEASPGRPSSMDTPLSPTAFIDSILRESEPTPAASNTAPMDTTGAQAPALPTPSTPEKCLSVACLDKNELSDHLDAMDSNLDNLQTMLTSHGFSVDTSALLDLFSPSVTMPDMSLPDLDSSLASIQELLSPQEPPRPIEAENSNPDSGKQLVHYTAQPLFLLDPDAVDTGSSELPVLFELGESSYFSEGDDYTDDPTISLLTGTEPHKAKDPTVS
Nature of the assay: inhibition of MG132-induced HSE-luciferase signal, confirmation, cell-based, NIH3T3, luminescence, dose retest (AID 2382).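 Further: NIH3T3 fibroblasts with HSF1-driven luciferase reporter stressed by proteasome inhibitor MG132; luminescence from HSF1-driven luciferase expression after 8 hours of MG132 stress.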 The assay is classed as functional.

Assay [4] has as its target T4, Ubiquitin-conjugating enzyme E2 N (Homo sapiens, UniProt P61088).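 Further: Dose-response confirmation in a TR-FRET assay detecting UBC13-driven polyubiquitin chain formation, inhibition measured.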
T4 sequence (P61088 whole entry): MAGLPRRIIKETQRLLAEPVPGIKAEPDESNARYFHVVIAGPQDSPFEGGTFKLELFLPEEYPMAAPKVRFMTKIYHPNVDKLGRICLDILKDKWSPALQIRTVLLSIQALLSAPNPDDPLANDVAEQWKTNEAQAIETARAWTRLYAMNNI
The assay is classed as functional.

The subject of assay [5] is H9c2. Nature of the assay: cells. The assay is classed as functional, cell-based. The conditions noted are these: Rattus norvegicus, H9c2, Myocardium.
The nature of assay [6]: Shn3 3'UTR reporter inhibitors, dose response, cell-based, Clone20 osteoblasts, firefly luciferase, cherry-picked (AID 624132).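 Further: firefly luciferase luminescence from reporter carrying the Shn3 3'UTR in osteoblasts.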 The class given is functional.
Assay [7] addresses Luciferin 4-monooxygenase (Photinus pyralis, UniProt P08659). As to the kind of experiment: firefly luciferase enzyme inhibitors, dose response, biochemical, luminescence (AID 1891).
Assay [8] has as its system Streptococcus sp. 'group A'. As to the kind of experiment: growth inhibition of control SK(-) GAS strain, dose response, counter-screen for streptokinase expression inhibitor project, luminescence, kanamycin, BacTiterGlo, confirmation (AID 1900). The class given is functional, organism-based.
Assay [9] addresses T5, Streptokinase A (Streptococcus pyogenes serotype M1, UniProt P10520).
T5 sequence (P10520 whole entry): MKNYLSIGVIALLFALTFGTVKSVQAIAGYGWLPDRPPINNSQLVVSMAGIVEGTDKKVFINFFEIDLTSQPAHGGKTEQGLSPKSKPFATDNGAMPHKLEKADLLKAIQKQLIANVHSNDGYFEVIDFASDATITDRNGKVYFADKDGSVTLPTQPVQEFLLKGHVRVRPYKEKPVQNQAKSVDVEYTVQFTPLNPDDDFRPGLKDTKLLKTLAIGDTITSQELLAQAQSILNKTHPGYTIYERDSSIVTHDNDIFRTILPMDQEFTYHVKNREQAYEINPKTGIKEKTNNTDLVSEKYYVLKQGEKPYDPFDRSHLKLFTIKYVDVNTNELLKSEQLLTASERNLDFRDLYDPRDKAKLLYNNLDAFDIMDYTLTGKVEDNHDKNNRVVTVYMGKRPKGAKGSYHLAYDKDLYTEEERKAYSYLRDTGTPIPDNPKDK
Nature of the assay: S. pyogenes streptokinase expression inhibitors, potency, dose response, plasminogen activation absorbance, OD405 (AID 1914).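 Further: secreted streptokinase activity via plasminogen activation per viability signal from cell pellet.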 The assay is classed as functional, Streptococcus pyogenes M1 GAS.

Assay [10] relates to Streptococcus. As to the kind of experiment: Group A Streptococcus viability loss, dose response, counter-screen for streptokinase expression inhibitor project, luminescence, BacTiterGlo (AID 1915).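 Further: potency for reduction of bacterial viability or growth.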 The assay is classed as functional, organism-based.
A short description of assay [11]: Luminescence Cell-Based Dose Confirmation HTS to Identify Activators of 5'UTR Stem-Loop Driven Alpha-Synuclein mRNA Translation in H4 Neuroglioblastoma Cells. [Related pubchem assays: 1829 (Project Summary), 1814 (Primary HTS)]. The class given is functional.
The nature of assay [12]: Luminescence Cell-Based Dose Response HTS to Identify Activators of Luciferase Translation or Activity in H4 […] Cells. [Related pubchem assays: 1829 (Project Summary), 1814 (Primary HTS)]. The assay is classed as functional.
The subject of assay [13] is H4. Nature of the assay: Luminescence Cell-Based Dose Response HTS to Identify Activators of 5'UTR Stem-Loop Driven Prion Protein mRNA Translation in H4 Neuroglioblastoma Cells. [Related pubchem assays: 1829 (Project Summary), 1814 (Primary HTS)]. The class given is functional. As to conditions: Homo sapiens.
Assay [14] has as its system BJ. Nature of the assay: cytotoxicity toward BJ-TERT fibroblasts, dose response, cell-based, RAS-independent, luminescence (AID 1933). The class given is functional. As to conditions: Homo sapiens.
The test system of assay [15] is BJ. Nature of the assay: cells. The class given is functional, cell-based. The conditions noted are these: Homo sapiens.
Assay [16] can be described thus: cytotoxicity toward DRD oncogenic fibroblasts, dose response, cell-based, non-viral oncogenic, luminescence (AID 1934). The conditions noted are these: Homo sapiens. The class given is functional.

One may read the EC50 as the concentration needed to bring the measured effect to its halfway point. In general, IC50 refers to the concentration at which inhibition is half-maximal. A word on the AC50: it is the concentration at which the activity in the assay is half-maximal.

The structures appear in SMILES notation. The source made the active and inactive calls. For most assays here, no stated cut-off is given here; in the data, actives have a measured EC50 and inactives only a lower limit.

Sequence of Luciferin 4-monooxygenase (P08659 whole entry): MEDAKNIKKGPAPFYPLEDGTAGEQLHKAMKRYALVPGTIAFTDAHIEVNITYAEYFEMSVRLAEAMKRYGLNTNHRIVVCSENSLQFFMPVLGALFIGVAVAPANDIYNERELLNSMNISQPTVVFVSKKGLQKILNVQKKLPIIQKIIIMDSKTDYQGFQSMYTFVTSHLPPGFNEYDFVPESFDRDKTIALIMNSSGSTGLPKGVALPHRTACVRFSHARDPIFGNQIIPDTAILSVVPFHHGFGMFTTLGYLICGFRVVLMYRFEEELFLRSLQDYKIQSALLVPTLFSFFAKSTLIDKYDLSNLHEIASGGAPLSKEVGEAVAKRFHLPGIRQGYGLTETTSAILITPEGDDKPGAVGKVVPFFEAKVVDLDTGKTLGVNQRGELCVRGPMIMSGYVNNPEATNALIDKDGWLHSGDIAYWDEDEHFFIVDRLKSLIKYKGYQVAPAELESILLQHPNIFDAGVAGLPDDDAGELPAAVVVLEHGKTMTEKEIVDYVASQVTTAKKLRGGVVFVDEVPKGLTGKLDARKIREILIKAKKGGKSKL

In the case of `CCN=C(S)N(C)CCc1cc2c(c(OC)c1C=C1C(=O)N(C)C(=O)N(C)C1=O)OCO2`, the EC50 is on record as > 300 µM (not active) in assay [1], > 300 µM (not active) in [2] and > 195 µM (not active) in [3].
Consider `CCNC(C(=O)c1c[nH]c2c(CC)cccc12)c1ccccc1` (centres undefined), for which the IC50 in assay [4] is > 20 µM (inactive).
Regarding `CCSc1nnc(NC(=O)C2Cc3ccccc3CN2S(=O)(=O)CC)s1` (centres undefined), in assay [5], the IC50 is 10 µM (active).
For `Nc1nnc(SCC(=O)Nc2ccc(N3CCOCC3)cc2)s1`, the AC50 in assay [6] was 16.8 µM (active).
`O=C(NN1C(=O)c2ccc3c4c(ccc(c24)C1=O)CC3)c1ccc(Br)cc1`: the IC50 in assay [4] was > 20 µM (inactive).
`Cc1nc(-c2ccccn2)nc(S)c1Cl`: in assay [5], the IC50 is > 79 µM (inactive).
Turning to `CC(=O)N(C)c1ccc(N=NC2C(=O)N(C(N)=S)N=C2C)cc1` (centres undefined), the EC50 in assay [1] was > 300 µM (not active); in assay [2], 34.6 µM (active).
Taken in the same sequence, the figures for `CCOC(=O)c1c(NC(=O)Nc2ccc(F)cc2)sc2c1CCN(C)C2` were 27.7 µM (inconclusive) and 39.8 µM (active).
For the compound `O=C1c2cccc3cccc(c23)C(=O)N1Nc1ccccc1`, the IC50 in [4] was > 20 µM (inactive).
As to `COc1ccccc1N1C(=O)NC(=O)/C(=C\c2c[nH]c3ccccc23)C1=O`, the EC50 in [1] and in assay [2] was > 300 µM (not active) in each case.
`CCCCn1c(-c2cccs2)nc2nc3ccccc3nc21`: the IC50 in assay [4] was > 20 µM (inactive).
Turning to `CCOC(=O)COc1cccc(C2NC(=O)c3ccccc3O2)c1` (centres undefined), the IC50 in assay [5] is 12.7 µM (active).
As to `CC(=O)Oc1ccc(-c2cc3ccc(OC(C)=O)cc3oc2=O)cc1`, the EC50 in assay [7] is listed as > 112 µM (not active).
Regarding `CCC(=O)OC1(C)C(=O)C=C2C=C(c3ccsc3)OC=C2C1=O` (centres undefined), the EC50 in assay [1] is 34.1 µM (active); in assay [2], 32.5 µM (active).
On to `CN(C)CC(O)COc1ccc(C(C)(C)c2ccc(OCC(O)CN(C)C)cc2)cc1` (centres undefined), for which the IC50 in [4] was > 20 µM (inactive).
For the compound `O=C(CSc1ccc2nnc(-c3ccc(F)cc3)n2n1)N1CCCc2ccccc21`, the IC50 in [5] is > 79 µM (inactive).
Consider `O=C(NNC(=O)c1ccccc1OCc1ccccc1Cl)c1csc(N2CCOCC2)n1`, for which the 50% effective concentration (EC50) was 12.8 µM (active) in assay [8], > 150 µM (not active) in [9] and > 150 µM (not active) in [10]. Further, the IC50 in assay [5] was 12.8 µM (active).
As for `O=C1C2C3C=CC(CO)(O3)C2C(=O)N1c1ccc(-c2ccccc2)cc1` (centres undefined), the EC50 is > 120 µM (not active) in [11], 8.45 µM (active) in assay [12] and 15.5 µM (active) in assay [13].
As to `Nc1ccc(Cc2nc3c(ccc4ccccc43)[nH]2)cc1`, the 50% effective concentration (EC50) in assay [11] is 14 µM (active); in [12], 24.8 µM (active); in assay [13], 14.7 µM (active).
For the compound `CCc1ccc(/C=C2\SC(=S)N(CCC(=O)NCCCN3CCOCC3)C2=O)cc1`, the EC50 in assay [14] was 1.24 µM (active); in assay [15], > 150 µM (not active); in [16], 5.87 µM (active).
For the compound `COc1cccc(C2(O)CC(C(F)(F)F)=NN2C(=O)c2ccccn2)c1` (centres undefined), the results for the EC50 in assay [11], in assay [12] and in assay [13] were 18.5 µM (active), > 120 µM (not active) and 7.55 µM (active), respectively.
`Cc1c(O)ccc2c3c(c(=O)oc12)CCC(C)C3` (centres undefined): the IC50 in assay [5] was > 79 µM (inactive).
Regarding `COc1ccc2cc3cc(C(=O)NCCN4CCc5ccccc5C4)sc3nc2c1`, the half-maximal effective concentration (EC50) was 6.85 µM (active) in assay [11], 17.8 µM (active) in assay [12] and 15.1 µM (active) in [13].
For `COc1ccc(CC(=O)N(C)CC(=O)Nc2ccccc2Cl)cc1S(=O)(=O)N1CCOCC1`, in assay [4], the IC50 is > 20 µM (inactive).
Take `Sc1nc2ccccc2c2ccccc12`: the IC50 in [5] is 31.5 µM (inactive).
In the case of `N#Cc1ccccc1OCC(=O)Nc1nc(-c2ccccn2)cs1`, the IC50 in assay [5] is > 79 µM (inactive).
For the compound `COc1ccc(-c2cc3cc(OC)c(OC)cc3cn2)cc1OC`, the EC50 is 10.2 µM (active) in assay [11], 21.7 µM (active) in assay [12] and 18 µM (active) in [13].
For `CC(=O)Nc1cc(C)nn1-c1nc2ccccc2s1`, the IC50 in assay [5] was 11.6 µM (active).
